The supplement of paper PMC10307832

Experiments:
Assay in all cases: relative viability (nuclei count vs DMSO), 5 days (fraction); higher = more cells survive
[1] = compound: CC(=O)c1c(C)c2cnc(Nc3ccc(N4CCNCC4)cn3)nc2n(C2CCCC2)c1=O [Palbociclib]
How it was run: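 Lung cancer cell lines received five library-drug doses (not always all listed) spaced by √10, pinned on vehicle-anchored 1536-well plates after an overnight stay at 37 °C. Five days later, with no medium change, nuclei were Hoechst-stained, imaged at 4× and counted with MetaXpress. Viability is treated-well nuclei relative to vehicle-well nuclei, as a median across plates. Passing plates had control CV below 25% and at least one doubling.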

[2] = compound: CC(=O)c1c(C)c2cnc(Nc3ccc(N4CCNCC4)cn3)nc2n(C2CCCC2)c1=O [Palbociclib] + CC1(C)CCC(c2ccc(Cl)cc2)=C(CN2CCN(c3ccc(C(=O)NS(=O)(=O)c4ccc(N[C@H](CCN5CCOCC5)CSc5ccccc5)c(S(=O)(=O)C(F)(F)F)c4)cc3)CC2)C1 [Navitoclax] (partner 0.5 µM)
How it was run: (§1)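 Medians of duplicate plates are given as relative viability. That measure is the nuclei count in treated wells divided by the count in vehicle wells. Counts were taken on 4× images of lung cancer cell lines in 1536-well plates, 5 days after pin-tool dosing the day after seeding with one drug alone or a fixed anchor-drug dose plus five library-drug doses (not always all listed) in √10 steps.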

[3] = compound: CC(=O)c1c(C)c2cnc(Nc3ccc(N4CCNCC4)cn3)nc2n(C2CCCC2)c1=O [Palbociclib] + C[C@]1(O)C[C@@H](c2nc(-c3ccc4ccc(-c5ccccc5)nc4c3)c3c(N)nccn32)C1 [Linsitinib] (partner 1 µM)
How it was run: as §1

[4] = compound: CC(=O)c1c(C)c2cnc(Nc3ccc(N4CCNCC4)cn3)nc2n(C2CCCC2)c1=O [Palbociclib] + N=C(N)NC(=N)NCCc1ccccc1 [Phenformin] (partner 250 µM)
How it was run: as §1

[5] = compound: CC(=O)c1c(C)c2cnc(Nc3ccc(N4CCNCC4)cn3)nc2n(C2CCCC2)c1=O [Palbociclib] + COc1cc2c(Oc3ccc(NC(=O)C4(C(=O)Nc5ccc(F)cc5)CC4)cc3F)ccnc2cc1OCCCN1CCOCC1 [Foretinib] (partner 0.25 µM)
How it was run: as §1

[6] = compound: CC(=O)c1c(C)c2cnc(Nc3ccc(N4CCNCC4)cn3)nc2n(C2CCCC2)c1=O [Palbociclib] + C[C@@H](Oc1cc(-c2cnn(C3CCNCC3)c2)cnc1N)c1c(Cl)ccc(F)c1Cl [Crizotinib] (partner 1 µM)
How it was run: as §1

[7] = compound: CC(=O)c1c(C)c2cnc(Nc3ccc(N4CCNCC4)cn3)nc2n(C2CCCC2)c1=O [Palbociclib] + CS(=O)(=O)N1CCN(Cc2cc3nc(-c4cccc5[nH]ncc45)nc(N4CCOCC4)c3s2)CC1 [Pictilisib] (partner 1 µM)
How it was run: as §1

[8] = compound: CC(=O)c1c(C)c2cnc(Nc3ccc(N4CCNCC4)cn3)nc2n(C2CCCC2)c1=O [Palbociclib] + CS(=O)(=O)CCNCc1ccc(-c2ccc3ncnc(Nc4ccc(OCc5cccc(F)c5)c(Cl)c4)c3c2)o1 [Lapatinib] (partner 2 µM)
How it was run: as §1

[9] = compound: CC(=O)c1c(C)c2cnc(Nc3ccc(N4CCNCC4)cn3)nc2n(C2CCCC2)c1=O [Palbociclib] + O=C(c1cc(Cc2n[nH]c(=O)c3ccccc23)ccc1F)N1CCN(C(=O)C2CC2)CC1 [Olaparib] (partner 8 µM)
How it was run: as §1

[10] = compound: CC(=O)c1c(C)c2cnc(Nc3ccc(N4CCNCC4)cn3)nc2n(C2CCCC2)c1=O [Palbociclib] + Nc1ncn([C@H]2C[C@H](O)[C@@H](CO)O2)c(=O)n1 [Decitabine] (partner 2 µM)
How it was run: as §1

[11] = compound: CC(=O)c1c(C)c2cnc(Nc3ccc(N4CCNCC4)cn3)nc2n(C2CCCC2)c1=O [Palbociclib] + Cc1nc(NC(=O)N2CCC[C@H]2C(N)=O)sc1-c1ccnc(C(C)(C)C(F)(F)F)c1 [Alpelisib] (partner 2 µM)
How it was run: as §1

Cell Line A549 has a relative viability ([1]; 0.01 µM) of 0.983, a relative viability ([1]; 0.03162 µM) of 0.71 and a relative viability ([1]; 0.1 µM) of 0.68. For the same cell line, the relative viability ([1]; 0.3162 µM) was 0.692, the relative viability ([1]; 1 µM) was 0.448 and the relative viability ([2]; first compound 0.01 µM) was 1.09. For the same cell line, the relative viability ([2]; first compound 0.03162 µM) was 0.904, the relative viability ([2]; first compound 0.1 µM) was 0.667 and the relative viability ([2]; first compound 0.3162 µM) was 0.515. The relative viability ([2]; first compound 1 µM) was 0.335, the relative viability ([3]; first compound 0.01 µM) was 0.619 and the relative viability ([3]; first compound 0.03162 µM) was 0.38. For the same cell line, the relative viability ([3]; first compound 0.1 µM) was 0.316, the relative viability ([3]; first compound 0.3162 µM) was 0.457 and the relative viability ([3]; first compound 1 µM) was 0.274. The relative viability ([4]; first compound 0.01 µM) was 0.205, the relative viability ([4]; first compound 0.03162 µM) was 0.0665 and the relative viability ([4]; first compound 0.1 µM) was 0.11. For the same cell line, the relative viability ([4]; first compound 0.3162 µM) was 0.129, the relative viability ([4]; first compound 1 µM) was 0.096 and the relative viability ([5]; first compound 0.01 µM) was 0.925. For the same cell line, the relative viability ([5]; first compound 0.03162 µM) was 0.831, the relative viability ([5]; first compound 0.1 µM) was 0.754 and the relative viability ([5]; first compound 0.3162 µM) was 0.635. It also gave a relative viability ([5]; first compound 1 µM) of 0.43, a relative viability ([6]; first compound 0.01 µM) of 0.776 and a relative viability ([6]; first compound 0.03162 µM) of 0.65. The relative viability ([6]; first compound 0.1 µM) was 0.472, the relative viability ([6]; first compound 0.3162 µM) was 0.362 and the relative viability ([6]; first compound 1 µM) was 0.29. It also gave a relative viability ([7]; first compound 0.01 µM) of 0.472, a relative viability ([7]; first compound 0.03162 µM) of 0.318 and a relative viability ([7]; first compound 0.1 µM) of 0.293. The relative viability ([7]; first compound 0.3162 µM) was 0.283, the relative viability ([7]; first compound 1 µM) was 0.203 and the relative viability ([8]; first compound 0.01 µM) was 0.868. For the same cell line, the relative viability ([8]; first compound 0.03162 µM) was 0.784, the relative viability ([8]; first compound 0.1 µM) was 0.615 and the relative viability ([8]; first compound 0.3162 µM) was 0.474. It also gave a relative viability ([8]; first compound 1 µM) of 0.364, a relative viability ([9]; first compound 0.01 µM) of 0.345 and a relative viability ([9]; first compound 0.03162 µM) of 0.0522. For the same cell line, the relative viability ([9]; first compound 0.1 µM) was 0.282, the relative viability ([9]; first compound 0.3162 µM) was 0.3 and the relative viability ([9]; first compound 1 µM) was 0.231. For the same cell line, the relative viability ([10]; first compound 0.01 µM) was 0.269, the relative viability ([10]; first compound 0.1 µM) was 0.245 and the relative viability ([10]; first compound 0.3162 µM) was 0.274. For the same cell line, the relative viability ([10]; first compound 1 µM) was 0.302, the relative viability ([11]; first compound 0.01 µM) was 0.741 and the relative viability ([11]; first compound 0.03162 µM) was 0.651. For the same cell line, the relative viability ([11]; first compound 0.1 µM) was 0.486, the relative viability ([11]; first compound 0.3162 µM) was 0.356 and the relative viability ([11]; first compound 1 µM) was 0.254.
